Assay results reported in patent US20100160314A1, “Small Molecule Inhibitors of Toll-Like Receptor 9” (priority 2006, published 2010).
pIC50: −log10 of the molar value. Read-outs that look alike come from different tables or passages of the source.

How the values were obtained:
Format in all cases: cell-based
[1] = target: T1, TLR7 (Homo sapiens, UniProt Q9NYK1); assay: Human PBMC, IFN-α readout using ORN R-1362+DOTAP (TLR7 antagonism)
T1 construct: endogenous in cells; host or cells: freshly isolated human PBMC from donor buffy coats
T1 sequence (Q9NYK1 27-1049): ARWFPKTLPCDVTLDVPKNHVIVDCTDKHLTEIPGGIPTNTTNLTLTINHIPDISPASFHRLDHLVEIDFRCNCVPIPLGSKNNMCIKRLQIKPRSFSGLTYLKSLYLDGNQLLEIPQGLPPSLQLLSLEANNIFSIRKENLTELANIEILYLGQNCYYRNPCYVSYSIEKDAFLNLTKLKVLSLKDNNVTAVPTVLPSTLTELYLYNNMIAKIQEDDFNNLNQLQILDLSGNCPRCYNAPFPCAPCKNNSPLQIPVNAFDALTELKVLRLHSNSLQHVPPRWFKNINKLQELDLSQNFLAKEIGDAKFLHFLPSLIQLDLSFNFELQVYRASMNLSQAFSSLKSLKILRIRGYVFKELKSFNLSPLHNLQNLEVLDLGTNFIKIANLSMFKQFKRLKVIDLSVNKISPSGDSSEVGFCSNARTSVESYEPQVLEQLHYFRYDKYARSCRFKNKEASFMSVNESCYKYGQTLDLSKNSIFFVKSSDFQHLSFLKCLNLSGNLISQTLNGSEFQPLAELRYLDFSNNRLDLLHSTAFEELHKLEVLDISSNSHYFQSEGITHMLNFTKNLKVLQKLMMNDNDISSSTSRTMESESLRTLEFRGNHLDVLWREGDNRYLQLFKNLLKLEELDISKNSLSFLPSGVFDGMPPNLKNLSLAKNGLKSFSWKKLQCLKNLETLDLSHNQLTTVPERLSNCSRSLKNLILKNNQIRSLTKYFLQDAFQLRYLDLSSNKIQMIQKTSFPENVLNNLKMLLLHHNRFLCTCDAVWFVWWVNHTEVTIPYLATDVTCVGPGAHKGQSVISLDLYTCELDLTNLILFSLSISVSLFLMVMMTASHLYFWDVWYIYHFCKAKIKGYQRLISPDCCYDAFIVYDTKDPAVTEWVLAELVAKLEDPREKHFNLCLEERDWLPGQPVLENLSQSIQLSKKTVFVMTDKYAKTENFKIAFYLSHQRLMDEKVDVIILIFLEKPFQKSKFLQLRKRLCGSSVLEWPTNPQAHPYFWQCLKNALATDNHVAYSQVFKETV
Excerpt: (§1) Peripheral blood mononuclear cell (PBMC) buffy coat preparations from healthy male and female human donors were obtained from the Institute for Hemostaseology and Transfusion Medicine of the University of Düsseldorf (Germany).
(§2) PBMC were purified by centrifugation over Ficoll-Hypaque (Sigma). Purified PBMC were washed twice with 1×PBS and resuspended in RPMI 1640 culture medium supplemented with 5% (v/v) heat-inactivated human AB serum (BioWhittaker, Belgium) or 10% (v/v) heat-inactivated fetal calf serum (FCS), 1.5 mM L-glutamine, 100 U/ml penicillin and […] streptomycin (all from Sigma, Deisenhofen, Germany).
(§3) Freshly isolated PBMC were resuspended at a concentration of 3×10^6/ml to 5×10^6/ml with RPMI 1640 culture medium and added to 96-well round-bottomed plates (150 μl/well) which had previously received nothing or selected concentrations (typically 10 μM-0.085 nM as 7-fold serial dilutions) of small molecule. To assay antagonist reaction for TLR9, 1 μM CpG oligodeoxynucleotide (ODN) 2395 ([…]; SEQ ID NO:3) was added to wells containing small molecules. To assay antagonist reaction for TLR7 and TLR8, 0.5 μM oligoribonucleotide (ORN) R-1362 ([…]; SEQ ID NO:4) complexed to 5 μg/ml DOTAP was added to wells containing small molecules. To calculate response to CpG ODN 2395 alone or ORN R-1362+DOTAP alone, wells without small molecules were stimulated with CpG ODN 2395 or ORN R-1362+DOTAP.
(§4) Cells were cultured in a humidified incubator at 37° C. for 16 h. Culture supernatants were then collected and, if not used immediately, frozen at −20° C. until required.
(§5) Amounts of cytokines in the supernatants were assessed using enzyme-linked immunosorbent assays (ELISA) specific for IFN-α or TNF-α using commercially available antibodies or kits from BD Pharmingen or Diaclone, respectively. IFN-α readout using CpG 2395 was used to measure TLR9 response. IFN-α readout using ORN R-1362+DOTAP was used to measure TLR7 response. TNF-α release using R-1362 complexed to DOTAP was used to measure TLR8-mediated immune response.

[2] = target: T2, TLR9 (Homo sapiens, UniProt Q9NR96); assay: Human PBMC, IFN-α readout using CpG ODN 2395 (TLR9 antagonism)
T2 construct: endogenous in cells; host or cells: freshly isolated human PBMC from donor buffy coats
T2 sequence (Q9NR96 26-1032): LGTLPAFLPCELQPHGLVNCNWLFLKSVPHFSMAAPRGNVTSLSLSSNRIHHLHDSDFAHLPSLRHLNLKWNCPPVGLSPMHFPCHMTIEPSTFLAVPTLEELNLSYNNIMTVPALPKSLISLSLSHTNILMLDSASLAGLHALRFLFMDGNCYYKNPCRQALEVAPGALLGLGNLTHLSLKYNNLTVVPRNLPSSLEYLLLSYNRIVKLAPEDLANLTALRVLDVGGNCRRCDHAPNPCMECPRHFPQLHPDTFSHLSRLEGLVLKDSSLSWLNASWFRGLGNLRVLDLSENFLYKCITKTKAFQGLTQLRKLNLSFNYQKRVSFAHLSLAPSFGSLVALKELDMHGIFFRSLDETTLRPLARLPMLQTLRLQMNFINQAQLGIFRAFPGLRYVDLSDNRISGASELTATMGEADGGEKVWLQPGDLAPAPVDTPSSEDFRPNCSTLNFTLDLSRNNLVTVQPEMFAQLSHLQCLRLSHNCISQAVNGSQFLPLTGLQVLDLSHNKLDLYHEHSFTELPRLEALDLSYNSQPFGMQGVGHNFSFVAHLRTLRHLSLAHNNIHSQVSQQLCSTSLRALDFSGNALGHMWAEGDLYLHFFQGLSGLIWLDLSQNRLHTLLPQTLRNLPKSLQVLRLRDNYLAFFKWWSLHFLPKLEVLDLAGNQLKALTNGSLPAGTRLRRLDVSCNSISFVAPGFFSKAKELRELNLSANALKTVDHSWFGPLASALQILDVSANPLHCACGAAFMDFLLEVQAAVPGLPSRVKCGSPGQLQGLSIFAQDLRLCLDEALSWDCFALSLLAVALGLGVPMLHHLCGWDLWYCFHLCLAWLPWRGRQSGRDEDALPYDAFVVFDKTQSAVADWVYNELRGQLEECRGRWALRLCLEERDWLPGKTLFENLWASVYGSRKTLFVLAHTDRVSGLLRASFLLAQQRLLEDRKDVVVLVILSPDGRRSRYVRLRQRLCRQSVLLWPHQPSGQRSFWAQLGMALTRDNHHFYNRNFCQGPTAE
Excerpt: as §1, §2, §3, §4, §5

[3] = target: T3, TLR8 (Homo sapiens, UniProt Q9NR97); assay: Human PBMC, TNF-α release using ORN R-1362+DOTAP (TLR8 antagonism)
T3 construct: endogenous in cells; host or cells: freshly isolated human PBMC from donor buffy coats
T3 sequence (Q9NR97 27-1041): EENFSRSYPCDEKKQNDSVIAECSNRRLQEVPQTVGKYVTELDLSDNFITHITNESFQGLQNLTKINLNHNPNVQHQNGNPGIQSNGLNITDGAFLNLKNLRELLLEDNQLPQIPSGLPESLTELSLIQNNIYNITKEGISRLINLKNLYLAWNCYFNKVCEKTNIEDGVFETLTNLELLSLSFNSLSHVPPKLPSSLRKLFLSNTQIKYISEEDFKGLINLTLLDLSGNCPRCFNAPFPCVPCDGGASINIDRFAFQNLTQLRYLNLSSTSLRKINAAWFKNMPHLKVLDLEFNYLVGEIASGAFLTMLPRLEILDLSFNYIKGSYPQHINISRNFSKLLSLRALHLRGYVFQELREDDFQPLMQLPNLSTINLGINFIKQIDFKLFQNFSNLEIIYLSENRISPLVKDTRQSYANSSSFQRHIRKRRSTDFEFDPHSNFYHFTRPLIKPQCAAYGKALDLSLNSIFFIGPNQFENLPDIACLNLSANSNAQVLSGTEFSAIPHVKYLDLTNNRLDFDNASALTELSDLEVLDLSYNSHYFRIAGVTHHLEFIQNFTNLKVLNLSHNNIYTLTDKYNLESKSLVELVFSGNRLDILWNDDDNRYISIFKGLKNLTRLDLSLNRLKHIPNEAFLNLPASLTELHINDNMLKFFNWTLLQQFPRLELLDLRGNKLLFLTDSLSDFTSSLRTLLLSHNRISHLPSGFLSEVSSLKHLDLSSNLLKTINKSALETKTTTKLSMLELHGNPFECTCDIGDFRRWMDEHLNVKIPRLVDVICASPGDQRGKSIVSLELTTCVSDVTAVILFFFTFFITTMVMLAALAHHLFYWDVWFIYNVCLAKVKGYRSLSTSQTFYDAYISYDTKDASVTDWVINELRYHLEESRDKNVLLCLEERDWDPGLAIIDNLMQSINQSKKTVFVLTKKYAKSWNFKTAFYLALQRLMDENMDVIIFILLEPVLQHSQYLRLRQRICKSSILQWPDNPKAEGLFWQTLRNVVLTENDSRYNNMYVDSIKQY
Excerpt: as §1, §2, §3, §4, §5

[4] = in vitro testing as described in Example 63, read-out: TLR7 IC50, Experimental
[5] = in vitro testing as described in Example 63, read-out: TLR9 IC50, Experimental
[6] = in vitro testing as described in Example 63, read-out: TLR8 IC50, Experimental

Row | Structure (SMILES) | pIC50 [1, 4] | pIC50 [2, 5] | pIC50 [3, 6] | pIC50 ([1]; human PBMC, 0.5 μM ORN R-1362 + 5 μg/ml DOTAP, 16 h, IFN-α ELISA, read-out: IC50 TLR7, Experimental) | pIC50 ([2]; human PBMC, 1 μM CpG ODN 2395, 16 h, IFN-α ELISA, read-out: IC50 TLR9, Experimental) | pIC50 ([3]; human PBMC, 0.5 μM ORN R-1362 + 5 μg/ml DOTAP, 16 h, TNF-α ELISA, read-out: IC50 TLR8, Experimental)
1 | CN1CCN(c2ccc(-c3cc(NCCN4CCOCC4)c4ncccc4n3)cc2)CC1 [6 (CaI)] | 6.10 | 6.60 | 6.85 | – | – | –
2 | CN1CCN(c2ccc(-c3cc(NCCN4CCOCC4)c4ncccc4n3)cc2)CC1 [6 (A3I)] | – | – | – | 6.14 | 7.14 | 6.96
3 | CN1CCN(c2ccc(-c3cc(NCCN4CCOCC4)c4ncccc4n3)cc2)CC1 [6 (BIV)] | 7.15 | 7.36 | 7.00 | – | – | –

Further lines, with some results ahead:

Row | pIC50 [1, 4] | pIC50 [2, 5] | pIC50 [3, 6] | Structure (SMILES) | pIC50 ([1]; human PBMC, 0.5 μM ORN R-1362 + 5 μg/ml DOTAP, 16 h, IFN-α ELISA, read-out: IC50 TLR7, Experimental) | pIC50 ([2]; human PBMC, 1 μM CpG ODN 2395, 16 h, IFN-α ELISA, read-out: IC50 TLR9, Experimental) | pIC50 ([3]; human PBMC, 0.5 μM ORN R-1362 + 5 μg/ml DOTAP, 16 h, TNF-α ELISA, read-out: IC50 TLR8, Experimental)
4 | 6.70 | 6.70 | 6.22 | CN1CCN(c2cc(NCCN3CCOCC3)c3cc(-c4ccccc4)ccc3n2)CC1 [6 (CI)] | – | – | –
5 | 7.12 | 7.11 | 7.74 | CN1CCN(c2ccc3nc(-c4ccccc4)nc(NCCN4CCOCC4)c3c2)CC1 [Compound 8 (Example 72)] | – | – | –
6 | 7.12 | 7.14 | 7.55 | CN1CCN(c2ccc3nc(-c4ccccc4)cc(NCCN4CCOCC4)c3c2)CC1 [5 (DI)] | – | – | –
